How the values were obtained:
AsPC-1 cell homogenates = assay: Enzymatic stability in AsPC-1 cell homogenates; assay type: in vitro ADME; conditions: 500 µg/mL protein, 37 °C
Experimental: (§1) Confluent Caco-2, Panc-1, and AsPC-1cells were rinsed twice with phosphate buffered saline (PBS). The cells were lysed with phosphate buffer (pH 7.4) by ultrasonication (Micro ultrasonic cell disrupter Model KT40, Kontes, Vineland, NJ, USA), and pelleted by centrifugation for 5 min at 1,000 × g. Protein amount was quantified with the Bio-Rad (Hercules, CA, USA) DC Protein Assay using bovine serum albumin as a standard. The amount of protein was adjusted to 500 µg/mL and hydrolysis reactions were carried out in 96-well plates (Corning). […] The filtrate was then analyzed via reverse-phase HPLC.
(§2) The stability samples of prodrugs and their metabolites, and perfusion samples were determined on an Agilent HPLC system (Agilent Technologies, Santa Clara, CA, USA). […] Standard curves generated for each prodrug and their parent drug were utilized for quantitation of integrated area under peaks. […]
(§3) The experiments concerning drug and their prodrug stability were performed at 37 °C in 0.01 N HCl, SIF (pH 6.0), and pH 7.4 phosphate buffer. […] Prodrug metabolites such as floxuridine, 5-fluorouracil (5-FU), gemcitabine, 2′-deoxy-2′,2′-difluorouridine, uracil, and cytosine were monitored along with prodrug disappearance in this experiment.

[1] = Enzymatic stability in AsPC-1 cell homogenates; assay type: in vitro ADME; conditions: human, AsPC-1 cell homogenates, pH 7.4; 500 µg/mL protein, 37 °C; read-out: AsPC-1 cell homogenates t1/2
Experimental: as §1, §2, §3

AsPC-1 cells = tested on: AsPC-1 cells; parameters: method as in PMID 18652477; conditions: cited from earlier work

2′,2′-difluoro-2′-deoxyuridine [Gemcitabine]
AsPC-1 cell homogenates t1/2 (AsPC-1 cell homogenates): 33.7 ± 14.5 min

Nc1ccn(C2OC(COC(=O)C(Cc3ccc(O)cc3)NC(=O)C(N)Cc3ccccc3)C(O)C2(F)F)c(=O)n1 [5′-L-Phenylalanyl-L-tyrosyl-gemcitabine]
half-life [1]: 8.1 ± 0.6 min

O=c1[nH]c(=O)n([C@H]2C[C@H](O)[C@@H](CO)O2)cc1F [Floxuridine, 5-fluoro-2′-deoxyuridine]
GI50 (AsPC-1 cells): 22.9 ± 5.7 mM
